This is an account of results in PubChem BioAssay AID228 (DTP/NCI, 2004).

Where “and” joins values, the source holds several entries; their conditions need not be identical. Equal values may be shown once. Results filed as inconclusive are left out. Starred links: 1 amine or outer side, 2 acyl side, 3 side chain; linkers in the order of their positions; H or OH if unused. Positions of bridges follow the written chain, without caps; N, C: chain ends. Non-standard residues stand in square brackets, D forms with d. Residues, ends and D or L forms follow the SMILES beside them. *: point of attachment. X1 = CC(C)C(C)C(C(=O)[*:2])N(C)[*:1]; Picolinoyl(3-OH) = O=C(c1ncccc1O)*; NMePhg = CN[CH](C(=O)O)c1ccccc1; Hyp = O=C(O)[CH]1C[CH](O)CN1; Sar = CNCC(=O)O

This experiment has as its system BDF1 mice, Friend leukemia sc, tumor weight T/C. Nature of the experiment: NCI In Vivo Anticancer Drug Screen. Data for tumor model Friend Virus Leukemia (Solid) (subcutaneous) in B6D2F1 (BDF1) mice. As to conditions: endpoint: mean tumor weight, higher = larger tumour. The protocol: The antitumor activity of compounds was measured in mice bearing transplantable tumors. Survival or tumor size were measured and the results are expressed as the measurement made in the treated group (T) divided by the measurement made in the vehicle treated control group (C). The tumor model used in this assay is Friend Virus Leukemia (Solid) (subcutaneous) in B6D2F1 (BDF1) mice

The mark [1] stands for this setting: dose: 50.0 mg/kg/injection, schedule: Q01DX011 (ip), vehicle: saline.
Where [2] appears, read: dose: 100.0 mg/kg/injection, schedule: Q01DX011 (ip), vehicle: saline.
Where [3] appears, read: dose: 200.0 mg/kg/injection, schedule: Q01DX011 (ip), vehicle: saline.
The mark [4] stands for this setting: dose: 25.0 mg/kg/injection, schedule: Q01DX011 (ip), vehicle: carboxymethylcellulose (CMC).
The mark [5] stands for this setting: dose: 50.0 mg/kg/injection, schedule: Q01DX011 (ip), vehicle: carboxymethylcellulose (CMC).
Where [6] appears, read: dose: 100.0 mg/kg/injection, schedule: Q01DX011 (ip), vehicle: carboxymethylcellulose (CMC).
Setting [7] is: dose: 15.0 mg/kg/injection, schedule: Q01DX011 (ip), vehicle: carboxymethylcellulose (CMC).
Setting [8] is: dose: 10.0 mg/kg/injection, schedule: Q01DX011 (ip), vehicle: carboxymethylcellulose (CMC).

Take `Cc1cc2nc3c(=O)[nH]c(=O)nc-3n(CCOC(=O)CCC(=O)O)c2cc1C`: the T/C runs as follows: (dose: 42.0 mg/kg/injection, schedule: Q01DX011 (ip), vehicle: carboxymethylcellulose (CMC)) 96 % of control; (dose: 84.0 mg/kg/injection, schedule: Q01DX011 (ip), vehicle: carboxymethylcellulose (CMC)) 108 % of control; (dose: 168.0 mg/kg/injection, schedule: Q01DX011 (ip), vehicle: carboxymethylcellulose (CMC)) 83 % of control; (dose: 236.0 mg/kg/injection, schedule: Q01DX011 (ip), vehicle: carboxymethylcellulose (CMC)) 59 % of control.
Turning to `Nc1nc(SCc2ccccc2)c2ncn(C3CCCC3)c2n1`, the T/C is 69 % of control (dose: 250.0 mg/kg/injection, schedule: Q01DX011 (ip), vehicle: carboxymethylcellulose (CMC)); 64 % of control (dose: 500.0 mg/kg/injection, schedule: Q01DX011 (ip), vehicle: carboxymethylcellulose (CMC)); 5 % of control (dose: 1000.0 mg/kg/injection, schedule: Q01DX011 (ip), vehicle: carboxymethylcellulose (CMC)).
For `CC(=O)[C@H]1CC[C@H]2[C@@H]3CCC4=CC(=O)[C@H](C)C[C@]4(C)[C@@]3(F)[C@@H](O)C[C@]12C`, the T/C reads like this: (dose: 9.5 mg/kg/injection, schedule: Q01DX011 (sc), vehicle: steriod suspending solution) 71 % of control; (dose: 19.0 mg/kg/injection, schedule: Q01DX011 (sc), vehicle: steriod suspending solution) 50 % of control; (dose: 75.0 mg/kg/injection, schedule: Q01DX011 (sc), vehicle: steriod suspending solution) 25 % of control and 42 % of control and 46 % of control; (dose: 150.0 mg/kg/injection, schedule: Q01DX011 (sc), vehicle: steriod suspending solution) 28 % of control; (dose: 300.0 mg/kg/injection, schedule: Q01DX011 (sc), vehicle: steriod suspending solution) 19 % of control.
For `CCNc1nncs1`, the T/C by setting is: (dose: 8.62 mg/kg/injection, schedule: Q01DX011 (ip), vehicle: carboxymethylcellulose (CMC)) 122 % of control; (dose: 17.25 mg/kg/injection, schedule: Q01DX011 (ip), vehicle: carboxymethylcellulose (CMC)) 107 % of control; (dose: 34.5 mg/kg/injection, schedule: Q01DX011 (ip), vehicle: carboxymethylcellulose (CMC)) 193 % of control; (dose: 69.0 mg/kg/injection, schedule: Q01DX011 (ip), vehicle: carboxymethylcellulose (CMC)) 112 % of control.
Turning to `CC(C)NCC(=O)c1ccc(O)c(O)c1`, the T/C by setting is: under setting [1], 95 % of control; under setting [2], 110 % of control; under setting [3], 102 % of control.
In the case of `CC(C)CC1NC(=O)C(NC(=O)c2ncccc2O)C(C)OC(=O)C(c2ccccc2)N(C)C(=O)C(C)NC(=O)C(C(C)C(C)C)N(C)C(=O)CN(C)C(=O)C2CC(O)CN2C1=O` (stereo unspecified) ({Picolinoyl(3-OH)}-TL[Hyp][Sar][X1]A[NMePhg]; ester 1-C; configuration not given here), the T/C was 57 % of control under setting [4]; 49 % of control under setting [5]; 64 % of control under setting [6]; 39 % of control (dose: 200.0 mg/kg/injection, schedule: Q01DX011 (ip), vehicle: carboxymethylcellulose (CMC)).
With `COc1ccc2c(c1OC)C(=O)O[C@@H]2[C@H]1c2c(cc3c(c2OC)OCO3)CCN1C`, the T/C reads like this: under setting [1], 110 % of control; under setting [2], 99 % of control; under setting [3], 85 % of control.
Turning to `C[C@@H]1C[C@@H]([C@H](O)CC2CC(=O)NC(=O)C2)C(=O)[C@@H](C)C1`, the T/C reads like this: (dose: 4.3 mg/kg/injection, schedule: Q01DX011 (ip), vehicle: carboxymethylcellulose (CMC)) 80 % of control; under setting [7], 31 % of control and 46 % of control.
Take `CO/[N+]([O-])=C\C(=O)N/C=C/C(=O)O`: the T/C is, setting by setting: (dose: 1.25 mg/kg/injection, schedule: Q01DX011 (ip), vehicle: carboxymethylcellulose (CMC)) 103 % of control; (dose: 2.5 mg/kg/injection, schedule: Q01DX011 (ip), vehicle: carboxymethylcellulose (CMC)) 105 % of control; under setting [8], 61 % of control; under setting [7], 53 % of control; under setting [4], 52 % of control.
Consider `CN(C)c1ccc(C(=C(c2ccc(N(C)C)cc2)c2ccc(N(C)C)cc2)c2ccc(N(C)C)cc2)cc1`, for which the T/C is, setting by setting: (dose: 3.0 mg/kg/injection, schedule: Q01DX011 (ip), vehicle: olive oil, sesame oil, peanut oil) 179 % of control; (dose: 6.0 mg/kg/injection, schedule: Q01DX011 (ip), vehicle: olive oil, sesame oil, peanut oil) 178 % of control and 237 % of control; (dose: 12.5 mg/kg/injection, schedule: Q01DX011 (ip), vehicle: olive oil, sesame oil, peanut oil) 178 % of control; (dose: 50.0 mg/kg/injection, schedule: Q01DX011 (ip), vehicle: olive oil, sesame oil, peanut oil) 65 % of control and 63 % of control; (dose: 200.0 mg/kg/injection, schedule: Q01DX011 (ip), vehicle: olive oil, sesame oil, peanut oil) 55 % of control; (dose: 300.0 mg/kg/injection, schedule: Q01DX011 (ip), vehicle: olive oil, sesame oil, peanut oil) 82 % of control. The T/C (dose: 400.0 mg/kg/injection, schedule: Q01DX011 (ip), vehicle: olive oil, sesame oil, peanut oil) was 80 % of control.
Consider `O=C1N(Cl)C(=O)C(c2ccc(Cl)cc2)(c2ccc(Cl)cc2)N1Cl`, for which the T/C reads like this: under setting [7], 56 % of control; (dose: 30.0 mg/kg/injection, schedule: Q01DX011 (ip), vehicle: carboxymethylcellulose (CMC)) 42 % of control; (dose: 60.0 mg/kg/injection, schedule: Q01DX011 (ip), vehicle: carboxymethylcellulose (CMC)) 33 % of control; (dose: 120.0 mg/kg/injection, schedule: Q01DX011 (ip), vehicle: carboxymethylcellulose (CMC)) 47 % of control.
Turning to `Cn1c(=O)c2[nH]cnc2n(C)c1=O`, the T/C is, setting by setting: (dose: 14.5 mg/kg/injection, schedule: Q01DX011 (ip), vehicle: carboxymethylcellulose (CMC)) 97 % of control; (dose: 29.0 mg/kg/injection, schedule: Q01DX011 (ip), vehicle: carboxymethylcellulose (CMC)) 93 % of control; (dose: 58.0 mg/kg/injection, schedule: Q01DX011 (ip), vehicle: carboxymethylcellulose (CMC)) 82 % of control; (dose: 116.0 mg/kg/injection, schedule: Q01DX011 (ip), vehicle: carboxymethylcellulose (CMC)) 66 % of control.
As to `c1ccc(CSc2ncnc3nc[nH]c23)cc1`, the T/C was 118 % of control (dose: 5.0 mg/kg/injection, schedule: Q01DX011 (ip), vehicle: carboxymethylcellulose (CMC)); 90 % of control under setting [8]; 109 % of control under setting [7]; 91 % of control under setting [4].
On to `Nc1ccccc1N`, for which the T/C is, setting by setting: under setting [4], 84 % of control; under setting [6], 11 % of control and 13 % of control and 18 % of control; (dose: 150.0 mg/kg/injection, schedule: Q01DX011 (ip), vehicle: carboxymethylcellulose (CMC)) 10 % of control.
For `C=CC(=O)NCNC(=O)C=C`, the T/C (dose: 15.0 mg/kg/injection, schedule: Q01DX011 (ip), vehicle: saline) is 89 % of control; the T/C (dose: 30.0 mg/kg/injection, schedule: Q01DX011 (ip), vehicle: saline) is 84 % of control; the T/C (dose: 60.0 mg/kg/injection, schedule: Q01DX011 (ip), vehicle: saline) is 70 % of control and 51 % of control; the T/C (dose: 120.0 mg/kg/injection, schedule: Q01DX011 (ip), vehicle: saline) was 16 % of control and 39 % of control.
In the case of `S=c1nc[nH]c2c1ncn2C1CCCO1` (stereo unspecified), the T/C is 79 % of control (dose: 0.75 mg/kg/injection, schedule: Q01DX011 (ip), vehicle: carboxymethylcellulose (CMC)); 65 % of control (dose: 1.5 mg/kg/injection, schedule: Q01DX011 (ip), vehicle: carboxymethylcellulose (CMC)); 54 % of control and 35 % of control (dose: 6.0 mg/kg/injection, schedule: Q01DX011 (ip), vehicle: carboxymethylcellulose (CMC)); 27 % of control and 45 % of control (dose: 12.0 mg/kg/injection, schedule: Q01DX011 (ip), vehicle: carboxymethylcellulose (CMC)); 9 % of control and 10 % of control under setting [4]; 2 % of control and 20 % of control under setting [5]. For the same compound, the T/C under setting [6] is 1 % of control and 3 % of control.
